Source: PubChem BioAssay (NCI)
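Compound exposure: 48 hours, 5 concentrations, 96-well plates. The concentration for 50% growth inhibition is given as GI50. TGI: total growth inhibition.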

Columns and labels:
Test in all cases: NCI tumour cell line growth inhibition, 48 h
[1] = tested on: 786-0 renal
[2] = tested on: NCI-H23 lung
[3] = tested on: HOP-62 NSCLC
[4] = tested on: MCF7 breast
[5] = tested on: HL-60(TB) leukemia
[6] = tested on: HCT-15 colon
[7] = tested on: COLO 205 colon
[8] = tested on: HT29 colon
[9] = tested on: UO-31 renal
[10] = tested on: U251 CNS
[11] = tested on: RPMI-8226 leukemia
[12] = tested on: NCI-H460 lung
[13] = tested on: SN12C renal
[14] = tested on: T-47D breast
[15] = tested on: BT-549 breast
[16] = tested on: SK-MEL-2 melanoma
[17] = tested on: RXF 393 renal
[18] = tested on: CAKI-1 renal
[19] = tested on: HOP-92 NSCLC
[20] = tested on: IGROV1 ovarian
[21] = tested on: SF-295 CNS
[22] = tested on: OVCAR-3 ovarian
[23] = tested on: SNB-75 CNS
[24] = tested on: HCC-2998 colon
[25] = tested on: MALME-3M melanoma
[26] = tested on: SF-539 CNS
[27] = tested on: HCT-116 colon
[28] = tested on: SK-MEL-28 melanoma
[29] = tested on: M14 melanoma
[30] = tested on: NCI-H226 lung
[31] = tested on: UACC-257 melanoma
[32] = tested on: ACHN renal
[33] = tested on: MDA-MB-435
[34] = tested on: CCRF-CEM leukemia
[35] = tested on: OVCAR-5 ovarian
[36] = tested on: OVCAR-8 ovarian
[37] = tested on: MDA-MB-231 breast
[38] = tested on: LOX IMVI melanoma
[39] = tested on: SK-MEL-5 melanoma
[40] = tested on: A549 NSCLC
[41] = tested on: PC-3 prostate
[42] = tested on: NCI-H522 lung
[43] = tested on: OVCAR-4 ovarian
[44] = tested on: TK-10 renal
[45] = tested on: KM12 colon
[46] = tested on: SW-620 colon
[47] = tested on: MOLT-4 leukemia
[48] = tested on: UACC-62 melanoma
[49] = tested on: A498 renal
[50] = tested on: HS 578T breast
[51] = tested on: SF-268 CNS
[52] = tested on: DU-145 prostate
[53] = tested on: SR leukemia
[54] = tested on: SNB-19 CNS
[55] = tested on: NCI/ADR-RES ovarian
[56] = tested on: EKVX NSCLC
[57] = tested on: K-562 leukemia

SMILES: Cc1cc(S(=O)(=O)/N=C(/N)Nc2ccccc2O)c(SCc2ccccc2)cc1Cl
- GI50 [1]: 18.6 µM
- TGI [1]: 35 µM
- GI50 [2]: 17.1 µM
- TGI [2]: 34.4 µM
- GI50 [3]: 20.7 µM
- TGI [3]: 37.3 µM
- GI50 [4]: 15.9 µM
- TGI [4]: 55.7 µM
- GI50 [5]: 4.22 µM
- TGI [5]: > 100 µM
- GI50 [6]: 12.1 µM
- TGI [6]: 28 µM
- GI50 [7]: 23 µM
- TGI [7]: 47.8 µM
- GI50 [8]: 32.5 µM
- TGI [8]: > 100 µM
- GI50 [9]: 6.99 µM
- TGI [9]: 25.7 µM
- GI50 [10]: 14.9 µM
- TGI [10]: 30.5 µM
- GI50 [11]: 11.4 µM
- TGI [11]: 52.3 µM
- GI50 [12]: 7.64 µM
- TGI [12]: 50.7 µM
- GI50 [13]: 14.3 µM
- TGI [13]: 30.4 µM
- GI50 [14]: 12.2 µM
- TGI [14]: 31.4 µM
- GI50 [15]: 8.2 µM
- TGI [15]: 22.8 µM
- GI50 [16]: 10.6 µM
- TGI [16]: 26.2 µM
- GI50 [17]: 12.1 µM
- TGI [17]: 27.9 µM
- GI50 [18]: 13.5 µM
- TGI [18]: 32.3 µM
- GI50 [19]: 15.3 µM
- TGI [19]: 35.6 µM
- GI50 [20]: 11 µM
- TGI [20]: 26.9 µM
- GI50 [21]: 19 µM
- TGI [21]: 39.5 µM
- GI50 [22]: 14.5 µM
- TGI [22]: 34.1 µM
- GI50 [23]: 19.3 µM
- TGI [23]: 39.2 µM
- GI50 [24]: 14.5 µM
- TGI [24]: 29.7 µM
- GI50 [25]: 20.3 µM
- TGI [25]: 38.2 µM
- GI50 [26]: 10.4 µM
- TGI [26]: 24.7 µM
- GI50 [27]: 15.1 µM
- TGI [27]: 31.4 µM
- GI50 [28]: 18.6 µM
- TGI [28]: 43.9 µM
- GI50 [29]: 15.3 µM
- TGI [29]: 32.3 µM
- GI50 [30]: 33.1 µM
- TGI [30]: > 100 µM
- GI50 [31]: 14.6 µM
- TGI [31]: 30.4 µM
- GI50 [32]: 13 µM
- TGI [32]: 27.4 µM
- GI50 [33]: 13.5 µM
- TGI [33]: 32 µM
- GI50 [34]: 5.95 µM
- TGI [34]: 39.8 µM
- GI50 [35]: 19.8 µM
- TGI [35]: 35.9 µM
- GI50 [36]: 12.9 µM
- TGI [36]: 36 µM
- GI50 [37]: 14.8 µM
- TGI [37]: 32.2 µM
- GI50 [38]: 14.6 µM
- TGI [38]: 33.5 µM
- GI50 [39]: 14.6 µM
- TGI [39]: 30.5 µM
- GI50 [40]: 10.2 µM
- TGI [40]: 32.1 µM
- GI50 [41]: 13.9 µM
- TGI [41]: 32.4 µM
- GI50 [42]: 9.68 µM
- TGI [42]: 27.1 µM
- GI50 [43]: 11.4 µM
- TGI [43]: 34.9 µM
- GI50 [44]: 22.9 µM
- TGI [44]: 41.2 µM
- GI50 [45]: 12.6 µM
- TGI [45]: 32.5 µM
- GI50 [46]: 22.1 µM
- TGI [46]: 56.4 µM
- GI50 [47]: 3.01 µM
- TGI [47]: 42.3 µM
- GI50 [48]: 9.6 µM
- TGI [48]: 22.7 µM
- GI50 [49]: 21.2 µM
- TGI [49]: 39.1 µM
- GI50 [50]: 21.8 µM
- TGI [50]: 47.9 µM
- GI50 [51]: 13.4 µM
- TGI [51]: 45.4 µM
- GI50 [52]: 23.9 µM
- TGI [52]: 79.5 µM
- GI50 [53]: 5.79 µM
- TGI [53]: > 100 µM
- GI50 [54]: 16.6 µM
- TGI [54]: 34 µM
- GI50 [55]: 16.7 µM
- TGI [55]: 36.6 µM
- GI50 [56]: 11 µM
- TGI [56]: 37.8 µM
- GI50 [57]: 10.2 µM
- TGI [57]: > 100 µM
